# Source: paper PMC12445474, “Conservation of heat stress acclimation by the IPK2-type kinases that control the synthesis of the inositol pyrophosphate 4/6-InsP7 in land plants” (PLOS Genetics, 2025)
# T1: AtIPK2α (Arabidopsis thaliana, UniProt Q9LY23)
# T1 construct: gene IPK2a; full-length CDS in pET28b, N-terminal His8-MBP-TEV, E. coli BL21 (RIL); tag removed by TEV for ITC, His8-MBP fusion for kinase assays
# T1 sequence (Q9LY23 1-286): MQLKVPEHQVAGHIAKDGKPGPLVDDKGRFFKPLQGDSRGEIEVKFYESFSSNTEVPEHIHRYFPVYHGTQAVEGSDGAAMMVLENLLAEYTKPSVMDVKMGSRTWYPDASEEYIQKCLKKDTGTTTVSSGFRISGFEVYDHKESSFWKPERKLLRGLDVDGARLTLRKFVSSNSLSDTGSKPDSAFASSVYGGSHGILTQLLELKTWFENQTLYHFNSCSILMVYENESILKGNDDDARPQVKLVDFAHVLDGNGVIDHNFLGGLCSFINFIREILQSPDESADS
# T2: AtIPK2β (Arabidopsis thaliana, UniProt Q9FLT2)
# T2 construct: gene IPK2b; full-length CDS in pET28b, N-terminal His8-MBP-TEV, E. coli BL21 (RIL); tag removed by TEV for ITC, His8-MBP fusion for kinase assays
# T2 sequence (Q9FLT2 1-300): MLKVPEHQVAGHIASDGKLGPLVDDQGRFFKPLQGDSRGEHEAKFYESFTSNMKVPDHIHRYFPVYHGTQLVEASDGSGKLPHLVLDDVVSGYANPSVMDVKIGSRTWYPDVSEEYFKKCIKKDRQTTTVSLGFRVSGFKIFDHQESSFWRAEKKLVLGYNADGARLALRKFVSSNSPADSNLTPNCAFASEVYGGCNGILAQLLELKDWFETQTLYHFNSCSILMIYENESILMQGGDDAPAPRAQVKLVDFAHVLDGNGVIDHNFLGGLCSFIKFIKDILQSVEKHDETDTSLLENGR
# T3: MpIPMK (Marchantia polymorpha (Tak-1), UniProt A0A2R6WAL0 1-319)
# T3 sequence: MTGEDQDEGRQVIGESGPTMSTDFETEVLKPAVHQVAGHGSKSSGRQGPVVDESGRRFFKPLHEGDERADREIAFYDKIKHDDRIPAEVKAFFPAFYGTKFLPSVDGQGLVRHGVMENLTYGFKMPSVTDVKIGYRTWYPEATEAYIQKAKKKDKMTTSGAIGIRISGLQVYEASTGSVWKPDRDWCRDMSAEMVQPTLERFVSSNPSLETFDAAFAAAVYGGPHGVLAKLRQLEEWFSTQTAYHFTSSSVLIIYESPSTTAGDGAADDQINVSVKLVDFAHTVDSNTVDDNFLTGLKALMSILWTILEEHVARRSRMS
# T4: AtIPK2β (Arabidopsis thaliana (Col-0), UniProt Q9FLT2 1-300)
# T4 sequence: T2 sequence (Q9FLT2 1-300)
# B1: FAM-HSE (AtHSP18.1 promoter element) (dsDNA)
# DNA 1: CTCGGTCGATCGAGAAGCTTCTGCATGATG
# DNA 2: AAACCATCATGCAGAAGCTTCTCGATCGAC
# B2: HSE∆ (dsDNA)
# DNA 1: CTCGGTCGATCGATGCATGATG
# DNA 2: AAACCATCATGCATCGATCGAC
# How the values were obtained:
# MpIPMK [1] = molecular target: T5, MpIPMK (Marchantia polymorpha, UniProt A0A2R6WAL0); assay: in vitro kinase assay, PAGE and CE-MS of products; assay type: biochemical; settings: 12.5 mM ATP, 10 nmol InsP6, 5 mM MgCl2, 20 mM HEPES pH 7.5, 1 mM DTT, 37 °C, 12 h
# T5 construct: gene MARPO_0118s0021; full-length CDS in pET28b, N-terminal His8-MBP fusion, E. coli, Ni-NTA purified in PBS; tag kept
# AtIPK2α = molecular target: T1, AtIPK2α; assay: isothermal titration calorimetry; assay type: binding
# AtIPK2β [2] = molecular target: T2, AtIPK2β; assay: isothermal titration calorimetry; assay type: binding
# MpIPMK [3] = molecular target: T3, MpIPMK; assay: EMSA; 50-200 nM protein, 250 nM probe; EMSA: 250 nM FAM probe, 15 min on ice (30 min pre-incubation with partner or InsP), 6% native PAGE; binding buffer not stated (proteins purified in PBS pH 7.4); settings: protein: recombinant; tags: N-terminal His8-MBP; label: 5' FAM on strand 1; 5' overhang 4 nt at both ends, 26 bp duplex
# AtIPK2β [4] = molecular target: T4, AtIPK2β; assay: as above; settings: protein: recombinant; tags: N-terminal His8-MBP-TEV; label: 5' FAM on strand 1; 5' overhang 4 nt at both ends, 26 bp duplex
# AtHSFA1b [5] = molecular target: T6, AtHSFA1b (Arabidopsis thaliana, UniProt O81821 1-481); assay: EMSA; 25-200 nM protein, 250 nM probe; EMSA: 250 nM FAM probe, 15 min on ice (30 min pre-incubation with partner or InsP), 6% native PAGE; binding buffer not stated (proteins purified in PBS pH 7.4); settings: protein: recombinant; tags: N-terminal His8-MBP; chain copies: 3; label: 5' FAM on strand 1; 5' overhang 4 nt at both ends, 26 bp duplex
# T6 sequence (O81821 whole entry): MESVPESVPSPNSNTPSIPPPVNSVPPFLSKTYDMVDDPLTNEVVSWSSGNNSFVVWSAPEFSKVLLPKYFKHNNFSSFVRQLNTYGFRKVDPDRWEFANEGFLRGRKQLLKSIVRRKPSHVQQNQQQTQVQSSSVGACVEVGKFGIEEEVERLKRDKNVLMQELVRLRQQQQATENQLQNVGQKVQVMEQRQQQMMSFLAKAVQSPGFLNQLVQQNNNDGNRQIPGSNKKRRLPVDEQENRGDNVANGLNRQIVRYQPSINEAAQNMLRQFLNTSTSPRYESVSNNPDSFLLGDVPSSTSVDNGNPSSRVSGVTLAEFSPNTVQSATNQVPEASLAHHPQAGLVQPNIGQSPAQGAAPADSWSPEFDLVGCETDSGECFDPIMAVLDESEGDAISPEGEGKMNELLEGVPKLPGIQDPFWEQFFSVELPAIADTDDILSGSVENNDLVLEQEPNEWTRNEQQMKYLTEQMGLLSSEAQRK
# AtHSFA1b [6] = molecular target: T6, AtHSFA1b; assay: EMSA; 50-200 nM protein, 250 nM probe; EMSA: 250 nM FAM probe, 15 min on ice (30 min pre-incubation with partner or InsP), 6% native PAGE; binding buffer not stated (proteins purified in PBS pH 7.4); settings: protein: recombinant; tags: N-terminal His8-MBP; chain copies: 3; label: 5' FAM on strand 1; 5' overhang 4 nt at both ends, 18 bp duplex
molecule,measurement,setting,value
O=P(O)(O)O[C@H]1[C@H](OP(=O)(O)O)[C@@H](OP(=O)(O)O)[C@H](OP(=O)(O)O)[C@@H](OP(=O)(O)O)[C@H]1OP(=O)(O)O [InsP6],kinase activity,MpIPMK [1],demonstrating that MpIPMK phosphorylates InsP6 in vitro
same,Kd,AtIPK2α,~2 µM
same,Kd,AtIPK2β [2],~0.5 µM
"O=P(O)(O)O[C@@H]1[C@H](O)[C@H](O)[C@@H](OP(=O)(O)O)[C@H](OP(=O)(O)O)[C@H]1O [Ins(1,4,5)P3]",Kd,AtIPK2α,~7 µM
same,Kd,AtIPK2β [2],~6 µM
B1,binding result,MpIPMK [3],no binding
same,binding result,AtIPK2β [4],no binding
same,binding result,AtHSFA1b [5],binds
B2,binding result,AtHSFA1b [6],no binding
